Legend:
Format in all cases: in vivo
[1] = system: carmine spider mite (Tetranychus cinnabarinus); assay: Adult emergence inhibition test on sprayed deutonymphs (Test example 3); conditions: 3 ml sprayed, after three days
Experimental: The emulsifiable concentrates of the following test compounds obtained according to Formulation example 1 were each diluted with water to a pre-determined concentration to obtain a dilute solution of each emulsifiable concentrate. From 20 to 60 deutonymphs of carmine spider mite (Tetranychus cinnabarinus) were transferred onto leaves in a petri dish, and 3 ml of the dilute solution was sprayed thereon. After three days, the number of the adults was counted to obtain an adult emergence inhibitory ratio.

[2] = system: tobacco cutworm (Spodoptera litura); assay: Mortality test on fourth instar larvae with treated artificial diet (Test example 2); conditions: 50 ppm, 2 ml on 13 g artificial diet, after six days, two replications, 8640 min
Excerpt: The emulsifiable concentrates of the following test compounds obtained according to Formulation example 1 were each diluted with water to a concentration of 50 ppm. Two milliliters of each dilute solution thus obtained was applied onto 13 g of artificial diet for tobacco cutworm (Spodoptera litura) which were then put in a polyethylene cup of 11 cm in diameter. Then, ten fourth instar larvae of tobacco cutworm were liberated in the cup. After six days, the dead and alive were examined to obtain mortality (two replications).

[3] = system: common mosquito (Culex pipiens pallens); assay: Emergence inhibition test on last instar mosquito larvae (Test example 1); conditions: 0.01 ppm in water; 20 last instar larvae bred until emergence; two replications
Experimental: The emulsifiable concentrates of the following test compounds obtained according to Formulation example 1 were each diluted with water to a concentration of 0.01 ppm. Thereafter, 100 ml of each dilute solution thus obtained was put in a 180-ml polyethylene cup, and 20 last instar larvae of common mosquito (Culex pipiens pallens) were liberated therein. The larvae were bred on a bait until emergence to obtain an emergence inhibitory ratio (two replications).

[4] = system: carmine spider mite (Tetranchus cinnabarinus); assay: Sterilization test on sprayed female adults, egg hatchability (Test example 4); conditions: 100 ppm, 3 ml sprayed on female adults; oviposition three days; hatchability after six days at 27°C
Experimental: The emulsifiable concentrates of the following test compounds obtained according to Formulation example 1 were each diluted with water to a concentration of 100 ppm to obtain a dilute solution of each emulsifiable concentrate. Thirty female adults of carmine spider mite (Tetranchus cinnabarinus) were transferred onto a leaf in a petri dish, and 3 ml of the dilute solution was sprayed thereon. After air-drying, 18 female adults were transferred onto untreated leaves in a petri dish, and allowed to oviposit for three days. The eggs obtained were stored in a chamber controlled at 27°C in an artificial weather room. After six days, hatchability of the eggs was examined to obtain a sterilization ratio.

[5] = system: carmine spider mite (Tetranychus cinnabarinus); assay: Degree of mite damage on potted kidney bean after spray and soil treatment (Test example 5); design: key: -: Little damage is observed.; +: Slight damage is observed.; ++: Same damage as in the untreated plot is observed; conditions: 500 ppm, 10 ml sprayed on plant, 2 ml on pot soil, after 20 days
Experimental: Ten female adults of carmine spider mite (Tetranychus cinnabarinus) were transferred onto each leaf of potted kidney bean in a primary leaf stage, which had elapsed seven days after sowing, and stored in a constant-temperature room kept at 25°C. After six days, the emulsifiable concentrate of the following test compounds formulated according to Formulation example 1 was diluted with water so that the active ingredient concentration was 500 ppm. Ten milliliters of the dilute solution was sprayed onto the plant on a turn table by a spray gun, and 2 ml of the diluted solution was treated on the pot soil. After 20 days, the degree of damage of each kidney bean by mites was examined.
The degree of damage was classified into three stages, -, + and ++. - : Little damage is observed. + : Slight damage is observed. ++: Same damage as in the untreated plot is observed.

## O=C(NC(=O)c1c(F)cccc1F)Nc1cc(Cl)c(Nc2ccc(OC(F)(F)C(F)F)cc2)c(Cl)c1 [(3), N-2,6-difluorobenzoyl-Nʹ-3,5-dichloro-4-[4-(1,1,2,2-tetrafluoroethoxy)anilino]phenylurea]
[1]
  Concentration and adult emergence inhibitory ratio (%) 100 ppm: 91%
[2]
  Mortality (%): 100%
[3]
  Emergence inhibitory ratio (%): 100%
[4]
  Sterilization ratio (%): 95%

## O=C(NC(=O)c1c(F)cccc1F)Nc1cc(Cl)c(Nc2ccc(OC(F)(F)F)cc2)c(Cl)c1 [(1), N-2,6-difluorobenzoyl-Nʹ-3,5-dichloro-4-[4-(trifluoromethoxy)anilino]phenylurea]
[5]
  Degree of damage: -
[1]
  Concentration and adult emergence inhibitory ratio (%) 100 ppm: 100%
[1]; 500 ppm
  Concentration and adult emergence inhibitory ratio (%) 500 ppm: 94%
[2]
  Mortality (%): 100%
[3]
  Emergence inhibitory ratio (%): 100%
[4]
  Sterilization ratio (%): 98%

Source: patent EP0278673B1, “A benzoylurea derivative and its production and use” (priority 1987, dated 1988)
